Test results from ChEMBL document CHEMBL1201862, “PubChem BioAssay data set” (2004).
The source made the active and inactive calls.

Legend:
[1] = biological target: T1, Endoribonuclease toxin MazF (Escherichia coli K-12, UniProt P0AE70); assay: substrate-only fluorescence increase artefacts – biochemical, single-stranded RNase substrate, counter-screen for MazEF activator project, dose response (AID 588502); assay type: functional
T1 sequence (P0AE70 whole entry): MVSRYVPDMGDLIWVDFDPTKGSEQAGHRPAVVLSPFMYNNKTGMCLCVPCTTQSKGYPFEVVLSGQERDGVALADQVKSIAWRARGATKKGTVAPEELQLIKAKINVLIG

[2] = biological target: T1, Endoribonuclease toxin MazF; assay: activation of MazEF endoribonuclease cleavage – biochemical, fluorescence, single-stranded RNA substrate, uHTS hits, dose response (AID 588481); assay type: functional
[3] = test system: Streptococcus sp. 'group A'; assay: Streptococcus pyogenes SK(-)GAS viability under kanamycin – luminescence, BacTiterGlo, confirmation, counter-screen for streptokinase expression inhibitor project, dose response (AID 1900); assay type: functional, organism-based
[4] = test system: INS1; assay: INS-1E survival protection against cytokine death – cell-based, luminescence, retest, dose response (AID 449756); assay type: functional; settings: Rattus norvegicus;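 note: cell death triggered by IL-1 beta plus TNF-alpha plus IFN-gamma mixture; protective hits raise ATP signal compared with cytokine alone wells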
[5] = biological target: 26S proteasome non-ATPase regulatory subunit 14 (Homo sapiens, UniProt O00487); assay: inhibition of proteasome subunit RPN11 – biochemical, fluorescence polarization, uHTS hits, confirmation (AID 602368); assay type: functional
[6] = test system: Streptococcus; assay: GAS UMAA2166 growth inhibition – luminescence, BacTiterGlo, counter-screen for streptokinase expression inhibitor project, dose response (AID 1915); assay type: functional, organism-based;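 note: potency for reduction of bacterial viability or growth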
[7] = biological target: 72 kDa type IV collagenase (Homo sapiens, UniProt P08253); assay: Dose Response validation of uHTS RPN11 inhibitor hits using a MMP-2 Fluorescence assay.; assay type: functional
[8] = biological target: Prothrombin (Bos taurus, UniProt P00735); assay: thrombin protease inhibitors – biochemical, fluorescence polarization, uHTS hits, dose response (AID 602369); assay type: functional
[9] = biological target: Voltage-gated inwardly rectifying potassium channel KCNH2 (Homo sapiens, UniProt Q12809); settings: Potency;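 note: confirmatory quantitative high-throughput screen measuring inhibition of hERG channel activity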
[10] = biological target: Cytochrome P450 3A4 (Homo sapiens, UniProt P08684); settings: Potency;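 note: confirmatory qHTS run detecting inhibitors and substrates of CYP3A4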
[11] = microbe, parasite or virus in culture; assay type: functional; settings: Mycobacterium tuberculosis
[12] = fluconazole-exposed Candida albicans growth modulators – fluorescence, retest, confirmation (AID 2467); assay type: functional, cell-based
[13] = NIH-3T3 fibroblast cytotoxicity, dose response, cytotoxicity control, cell-based, fluorescence, Alamar Blue, secondary assay (AID 2327); assay type: functional;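 note: NIH-3T3 mouse fibroblasts cultured with fluconazole at 8 µg/mL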
[14] = biological target: Heat shock protein HSP 90-alpha (Homo sapiens, UniProt P07900); assay type: functional, organism-based
[15] = biological target: T2, Short transient receptor potential channel 4 (Mus musculus, UniProt Q9QUQ5); assay: calcium entry via TRPC4 opening agents – cell-based, HEK293 TRPC4/mu-opioid, Fluo-4 calcium, dose response (AID 434937); assay type: functional
T2 sequence (Q9QUQ5 whole entry): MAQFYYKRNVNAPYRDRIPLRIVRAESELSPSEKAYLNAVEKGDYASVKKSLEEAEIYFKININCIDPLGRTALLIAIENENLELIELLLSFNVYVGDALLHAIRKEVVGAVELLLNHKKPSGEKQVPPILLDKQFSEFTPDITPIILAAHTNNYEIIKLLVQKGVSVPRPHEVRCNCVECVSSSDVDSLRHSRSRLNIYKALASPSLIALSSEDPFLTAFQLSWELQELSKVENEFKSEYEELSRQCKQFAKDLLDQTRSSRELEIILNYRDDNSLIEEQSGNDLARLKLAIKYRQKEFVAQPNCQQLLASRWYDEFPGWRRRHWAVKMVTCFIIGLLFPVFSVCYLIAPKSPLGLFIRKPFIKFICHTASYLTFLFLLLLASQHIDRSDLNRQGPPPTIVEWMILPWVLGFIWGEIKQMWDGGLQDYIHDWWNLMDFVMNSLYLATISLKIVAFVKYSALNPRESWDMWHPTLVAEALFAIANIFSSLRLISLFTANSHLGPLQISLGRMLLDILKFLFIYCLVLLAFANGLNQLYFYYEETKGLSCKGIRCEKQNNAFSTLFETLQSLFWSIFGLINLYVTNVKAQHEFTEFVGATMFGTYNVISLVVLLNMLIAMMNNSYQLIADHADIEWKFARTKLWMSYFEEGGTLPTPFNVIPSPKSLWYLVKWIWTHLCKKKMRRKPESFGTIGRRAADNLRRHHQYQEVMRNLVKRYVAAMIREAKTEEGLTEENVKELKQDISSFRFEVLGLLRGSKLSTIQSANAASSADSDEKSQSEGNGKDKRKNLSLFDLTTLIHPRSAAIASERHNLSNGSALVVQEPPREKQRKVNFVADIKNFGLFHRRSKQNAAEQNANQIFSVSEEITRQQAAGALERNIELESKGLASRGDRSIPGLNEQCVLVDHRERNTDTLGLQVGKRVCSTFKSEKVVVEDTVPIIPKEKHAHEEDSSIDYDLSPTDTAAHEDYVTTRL

[16] = biological target: T3, Replicative DNA helicase DnaB (Mycobacterium tuberculosis, UniProt P9WMR3); assay: DnaB intein splicing inhibitors, dose response, biochemical, cell-free fluorescence (AID 449749); assay type: functional
T3 sequence (P9WMR3 whole entry): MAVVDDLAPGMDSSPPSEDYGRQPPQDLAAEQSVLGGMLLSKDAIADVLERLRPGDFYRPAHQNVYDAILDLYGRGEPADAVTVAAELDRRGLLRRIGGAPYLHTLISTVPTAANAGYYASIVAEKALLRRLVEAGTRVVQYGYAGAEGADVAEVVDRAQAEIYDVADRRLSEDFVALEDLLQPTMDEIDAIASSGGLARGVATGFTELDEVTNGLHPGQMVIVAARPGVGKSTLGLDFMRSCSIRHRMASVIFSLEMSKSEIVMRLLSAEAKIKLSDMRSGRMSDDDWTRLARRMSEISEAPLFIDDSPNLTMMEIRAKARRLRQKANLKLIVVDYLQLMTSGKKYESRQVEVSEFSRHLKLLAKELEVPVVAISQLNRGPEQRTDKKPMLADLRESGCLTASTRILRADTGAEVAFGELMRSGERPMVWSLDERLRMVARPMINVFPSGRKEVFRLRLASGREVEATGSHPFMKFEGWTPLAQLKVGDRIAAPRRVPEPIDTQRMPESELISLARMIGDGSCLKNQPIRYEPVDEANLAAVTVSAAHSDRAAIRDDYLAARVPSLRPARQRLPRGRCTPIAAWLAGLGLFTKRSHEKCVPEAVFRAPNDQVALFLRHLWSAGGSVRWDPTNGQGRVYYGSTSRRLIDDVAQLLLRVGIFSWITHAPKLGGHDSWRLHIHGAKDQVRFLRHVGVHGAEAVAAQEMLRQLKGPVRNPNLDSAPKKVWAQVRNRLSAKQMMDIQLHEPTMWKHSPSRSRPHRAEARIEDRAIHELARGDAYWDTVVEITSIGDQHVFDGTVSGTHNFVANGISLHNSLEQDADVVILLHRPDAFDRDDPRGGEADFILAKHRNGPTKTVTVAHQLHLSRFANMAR

[17] = biological target: T4, Protein RecA (Mycobacterium tuberculosis, UniProt P9WHJ3); assay: Fluorescence Cell-Free Homogeneous Dose Retest to Identify Inhibitors of RecA-Intein Splicing Activity. [Related pubchem assays (depositor defined):AID2097, AID2223, AID489010, AID492950]; assay type: functional
T4 sequence (P9WHJ3 whole entry): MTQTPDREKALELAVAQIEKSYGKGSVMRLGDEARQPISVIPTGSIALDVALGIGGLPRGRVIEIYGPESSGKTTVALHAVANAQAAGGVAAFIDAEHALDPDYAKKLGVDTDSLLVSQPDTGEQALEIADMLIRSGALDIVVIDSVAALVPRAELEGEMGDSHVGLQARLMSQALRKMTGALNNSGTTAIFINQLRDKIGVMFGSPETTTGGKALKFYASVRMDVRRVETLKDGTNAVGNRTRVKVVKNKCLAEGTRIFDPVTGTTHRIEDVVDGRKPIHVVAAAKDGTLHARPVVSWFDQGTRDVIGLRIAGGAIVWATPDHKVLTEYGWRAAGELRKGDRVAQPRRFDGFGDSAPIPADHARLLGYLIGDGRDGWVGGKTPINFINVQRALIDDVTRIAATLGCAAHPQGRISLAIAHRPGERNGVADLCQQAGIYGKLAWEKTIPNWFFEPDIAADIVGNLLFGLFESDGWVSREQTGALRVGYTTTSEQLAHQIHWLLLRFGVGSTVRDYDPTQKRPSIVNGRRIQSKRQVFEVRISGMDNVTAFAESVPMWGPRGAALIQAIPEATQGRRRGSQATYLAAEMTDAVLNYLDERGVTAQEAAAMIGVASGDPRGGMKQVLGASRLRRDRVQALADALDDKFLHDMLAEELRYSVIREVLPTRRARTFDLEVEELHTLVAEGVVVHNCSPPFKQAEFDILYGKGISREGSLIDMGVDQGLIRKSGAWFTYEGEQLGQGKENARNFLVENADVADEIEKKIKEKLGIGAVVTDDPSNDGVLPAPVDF

[18] = alpha-synuclein stem-loop luciferase translation blockers – H4 neuroglioma cells, luminescence, confirmation (AID 1988); assay type: functional, cell-based
[19] = Luminescence Cell-Based Dose Response HTS to Identify Inhibitors of 5'UTR Stem-Loop Driven Prion Protein mRNA Translation in H4 Neuroglioblastoma Cells. [Related pubchem assays: 1827 (Project Summary), 1813 (Primary HTS)]; assay type: functional
[20] = luciferase reporter signal suppression in cells – H4 neuroglioma cells, luminescence, dose response (AID 1990); assay type: functional, cell-based
[21] = biological target: T5, Ubiquitin-conjugating enzyme E2 N (Homo sapiens, UniProt P61088); assay type: functional;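 note: Dose-response confirmation in a TR-FRET assay detecting UBC13-driven polyubiquitin chain formation, inhibition measured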
T5 sequence (P61088 whole entry): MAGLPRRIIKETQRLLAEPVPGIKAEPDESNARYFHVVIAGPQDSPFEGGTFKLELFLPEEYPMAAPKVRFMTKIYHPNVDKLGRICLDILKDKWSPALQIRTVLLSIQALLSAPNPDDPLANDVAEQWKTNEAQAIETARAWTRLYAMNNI

[22] = Luminescence Cell-Based Dose Retest to Confirm Inhibitors of Cancer Stem Cells. [Related pubchem assays (depositor defined):AID2717, AID2721]; assay type: functional; settings: Homo sapiens
[23] = cells; assay type: functional
[24] = test system: P388/ADR; assay: cells; assay type: functional; settings: Mus musculus
[25] = test system: SN12K1; assay: cells; assay type: functional; settings: Homo sapiens
[26] = test system: P388; assay: cells; assay type: functional; settings: Mus musculus

Chain of 72 kDa type IV collagenase (P08253 whole entry): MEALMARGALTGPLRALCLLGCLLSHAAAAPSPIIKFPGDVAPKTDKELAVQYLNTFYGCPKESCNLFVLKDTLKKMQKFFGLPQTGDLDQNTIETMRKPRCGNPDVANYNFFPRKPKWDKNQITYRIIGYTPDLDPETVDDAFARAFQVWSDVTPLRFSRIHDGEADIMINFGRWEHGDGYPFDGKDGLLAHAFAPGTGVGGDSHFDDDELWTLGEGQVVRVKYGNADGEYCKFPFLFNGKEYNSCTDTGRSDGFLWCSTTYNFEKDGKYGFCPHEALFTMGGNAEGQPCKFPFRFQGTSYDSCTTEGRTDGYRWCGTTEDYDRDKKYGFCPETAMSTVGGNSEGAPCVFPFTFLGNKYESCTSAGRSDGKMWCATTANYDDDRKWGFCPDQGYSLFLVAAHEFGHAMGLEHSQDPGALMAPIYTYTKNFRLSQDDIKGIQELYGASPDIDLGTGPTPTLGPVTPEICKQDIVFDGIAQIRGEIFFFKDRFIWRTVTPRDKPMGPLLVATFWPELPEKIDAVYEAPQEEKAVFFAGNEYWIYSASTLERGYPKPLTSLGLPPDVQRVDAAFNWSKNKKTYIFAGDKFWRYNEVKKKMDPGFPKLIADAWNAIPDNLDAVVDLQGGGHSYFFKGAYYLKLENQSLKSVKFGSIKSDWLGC
Chain of 26S proteasome non-ATPase regulatory subunit 14 (O00487 whole entry): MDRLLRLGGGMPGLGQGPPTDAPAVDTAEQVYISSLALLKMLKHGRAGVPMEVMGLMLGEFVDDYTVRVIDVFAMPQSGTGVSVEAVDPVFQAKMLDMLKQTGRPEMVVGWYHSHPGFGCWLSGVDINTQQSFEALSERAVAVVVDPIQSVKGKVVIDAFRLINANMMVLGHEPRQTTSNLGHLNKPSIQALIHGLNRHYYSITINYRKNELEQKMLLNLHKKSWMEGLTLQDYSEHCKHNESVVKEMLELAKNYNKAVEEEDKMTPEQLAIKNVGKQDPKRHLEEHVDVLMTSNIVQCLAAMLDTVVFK
Chain of Voltage-gated inwardly rectifying potassium channel KCNH2 (Q12809 whole entry): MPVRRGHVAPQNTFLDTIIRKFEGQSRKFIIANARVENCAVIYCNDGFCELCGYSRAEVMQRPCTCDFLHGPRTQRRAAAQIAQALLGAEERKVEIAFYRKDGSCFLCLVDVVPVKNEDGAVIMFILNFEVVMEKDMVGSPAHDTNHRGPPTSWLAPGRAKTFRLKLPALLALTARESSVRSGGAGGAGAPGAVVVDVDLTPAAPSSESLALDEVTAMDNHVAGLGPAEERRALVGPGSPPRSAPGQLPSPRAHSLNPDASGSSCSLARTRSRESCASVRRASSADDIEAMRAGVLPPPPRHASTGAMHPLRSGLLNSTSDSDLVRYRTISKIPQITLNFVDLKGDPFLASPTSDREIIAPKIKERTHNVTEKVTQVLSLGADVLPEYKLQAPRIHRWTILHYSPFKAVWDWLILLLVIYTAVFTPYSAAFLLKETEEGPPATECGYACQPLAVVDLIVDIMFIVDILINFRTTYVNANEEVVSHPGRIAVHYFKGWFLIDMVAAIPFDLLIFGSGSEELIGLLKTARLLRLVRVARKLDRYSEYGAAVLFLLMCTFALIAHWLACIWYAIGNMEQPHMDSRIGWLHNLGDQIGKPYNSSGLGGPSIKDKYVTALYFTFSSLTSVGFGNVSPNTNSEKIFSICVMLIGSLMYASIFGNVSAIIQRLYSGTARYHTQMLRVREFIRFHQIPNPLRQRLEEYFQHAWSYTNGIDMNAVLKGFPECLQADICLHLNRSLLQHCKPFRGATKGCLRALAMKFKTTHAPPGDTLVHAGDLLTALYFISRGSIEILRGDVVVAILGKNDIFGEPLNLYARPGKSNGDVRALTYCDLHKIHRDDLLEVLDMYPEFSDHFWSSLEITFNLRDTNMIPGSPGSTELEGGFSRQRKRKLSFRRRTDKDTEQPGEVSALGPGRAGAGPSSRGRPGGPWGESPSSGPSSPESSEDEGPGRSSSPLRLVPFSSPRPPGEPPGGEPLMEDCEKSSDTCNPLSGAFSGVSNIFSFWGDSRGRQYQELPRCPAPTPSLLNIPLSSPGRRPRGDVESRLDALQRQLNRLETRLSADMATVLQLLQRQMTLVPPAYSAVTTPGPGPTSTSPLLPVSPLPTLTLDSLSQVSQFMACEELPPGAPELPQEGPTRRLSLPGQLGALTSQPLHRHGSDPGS
Chain of Cytochrome P450 3A4 (P08684 whole entry): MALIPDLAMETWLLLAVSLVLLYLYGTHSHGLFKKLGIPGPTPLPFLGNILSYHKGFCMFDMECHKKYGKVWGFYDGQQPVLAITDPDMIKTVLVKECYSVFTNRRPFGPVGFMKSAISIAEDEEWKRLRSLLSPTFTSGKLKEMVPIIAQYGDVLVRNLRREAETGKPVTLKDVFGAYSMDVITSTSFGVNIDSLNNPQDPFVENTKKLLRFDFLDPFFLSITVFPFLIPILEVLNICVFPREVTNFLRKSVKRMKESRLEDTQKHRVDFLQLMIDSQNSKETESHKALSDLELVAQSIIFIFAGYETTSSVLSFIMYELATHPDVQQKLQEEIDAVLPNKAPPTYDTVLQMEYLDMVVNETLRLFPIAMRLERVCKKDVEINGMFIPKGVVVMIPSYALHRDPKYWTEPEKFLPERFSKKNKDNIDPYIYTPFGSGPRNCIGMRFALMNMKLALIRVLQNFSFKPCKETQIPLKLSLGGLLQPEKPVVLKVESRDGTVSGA

Structure (SMILES): COc1cccc(Nc2nc(-c3ccccc3O)nc3ccccc23)c1
- EC50 [1]: 40.7 µM (inactive)
- EC50 [2]: > 99 µM (inactive)

Structure (SMILES): O=C(N/N=C/c1cc([N+](=O)[O-])ccc1O)c1cc(-c2ccccc2)nc2ccccc12
- EC50 [3]: 1.83 µM (active)
- AC50 [4]: 1.24 µM (active)
- IC50 [5]: 14.8 µM (active)
- EC50 [6]: 2.65 µM (active)
- IC50 [7]: > 100 µM (inactive)
- IC50 [8]: 10.7 µM (active)

Structure (SMILES): CCCCCCCC/C=C\CCCCCCCC(=O)N(CCO)CCO
- AC50 [9]: 31.6 µM (inconclusive)
- AC50 [10]: 12.6 µM (inconclusive)

Structure (SMILES): O=C(/C=C/c1cc(Br)ccc1O)c1ccco1
- CC50 [11]: 7.21 µM (active)
- EC50 [12]: 2.26 µM (active)
- EC50 [13]: > 150 µM (inconclusive)
- AC50 [14]: 7.73 µM (active)

Structure (SMILES): Cc1cccc(C(=O)OC2CCCN(C)C2)c1C (centres undefined)
- EC50 [15]: 0.841 µM (active)

Structure (SMILES): O=C(CCl)NN=C(c1ccccc1)c1ccccc1
- CC50 [11]: 6.85 µM (active)
- EC50 [1]: > 99 µM (inactive)
- AC50 [16]: 12.1 µM (active)
- EC50 [17]: 2.71 µM (active)
- EC50 [2]: 61.2 µM (inactive)

Structure (SMILES): CN(C)C1(CNC(=O)Nc2ccc(Cl)c(Cl)c2)CCCCC1
- CC50 [11]: > 40 µM (active)
- EC50 [15]: 1.68 µM (active)

Structure (SMILES): Cc1cc(C)c2c(N)c(C(=O)N/N=C/c3cccs3)sc2n1
- IC50 [5]: 8.64 µM (active)
- IC50 [7]: > 100 µM (inactive)
- IC50 [8]: 35.8 µM (active)

Structure (SMILES): COC(=O)c1c(NC(=O)c2nc3ccccc3s2)sc2c1CC(C)(C)NC2(C)C
- EC50 [18]: 8.54 µM (active)
- EC50 [1]: > 99 µM (inactive)
- EC50 [19]: 8.33 µM (active)
- EC50 [20]: 8.05 µM (active)
- EC50 [2]: > 99 µM (inactive)
- IC50 [21]: > 20 µM (inactive)

Structure (SMILES): CC(C)OC(=O)c1c2c(n3ccccc13)C(=O)c1ccccc1C2=O
- AC50 [22]: 2.17 µM (active)
- EC50 [1]: > 99 µM (inactive)
- IC50 [23]: 0.44 µM (active)
- EC50 [2]: > 99 µM (inactive)

Structure (SMILES): CCOC(=O)c1ncn2c1[C@@H]1CCCN1C(=O)c1cc(OC)ccc1-2
- AC50 [9]: 25.1 µM (inconclusive)

Structure (SMILES): CCOc1cc(/C=C2\SC(=S)N(NC(=O)c3cccnc3)C2=O)ccc1O
- IC50 [5]: 25.8 µM (active)
- IC50 [7]: > 100 µM (inactive)
- IC50 [8]: 35.7 µM (active)

Structure (SMILES): Nc1nc2[nH]c(=O)cnc2c(=O)[nH]1 [ISOXANTHOPTERIN]
- GI50 [24]: > 125 µM (inactive)
- AC50 [9]: 17.8 µM (inconclusive)
- GI50 [25]: > 125 µM (inactive)
- GI50 [26]: > 125 µM (inactive)

Structure (SMILES): ClC1=C(Cl)C2(Cl)C3C4C=CC(C4)C3C1(Cl)C2(Cl)Cl (centres undefined) [ALDRIN]
- AC50 [9]: 20 µM (inconclusive)
